Reference: ChEMBL document CHEMBL6115010, “Targeting glioma with heteroaromatic alkaloids: A review of potential therapeutics” (Bioorg Med Chem, 2025)
pIC50: −log10 of the molar value. ≈ marks a conversion by molar mass, not a printed value.

What was measured:
[1] = Toxicity in ip dosed B6D2F1 mouse assessed as maximum tolerated dose measured after 28 days; assay type: organism-based; conditions: in vivo, time 28 day
SW1088 = test: Cytotoxicity against human SW1088 cells assessed as reduction in cell growth incubated for 24 hrs by MTT colorimetric assay; assay type: functional, cell-based; conditions: SW1088, 24 h
[2] = Cytotoxicity against human U373 MG cells assessed as reduction in cell growth incubated for 24 hrs by MTT colorimetric assay; assay type: functional, cell-based, U-373MG ATCC
GAMG = test: Antiproliferative activity against human GAMG cells assessed as reduction in cell viability incubated for 48 hrs by MTS reagent based assay; assay type: functional
H4 = test: Antiproliferative activity against human H4 cells assessed as reduction in cell viability incubated for 72 hrs by Prestoblue-reagent based assay; assay type: functional; conditions: H4, 72 h
U-87 MG [3] = test: Antiproliferative activity against human U-87 MG cells assessed as reduction in cell viability at 100 uM incubated for 72 hrs by Prestoblue-reagent based assay relative to control; assay type: functional, U-87MG ATCC
SF-268 [4] = test: Antiproliferative activity against human SF-268 cells; assay type: functional, cell-based
SF-295 = test: Cytotoxicity against human SF-295 cells assessed as reduction in cell growth incubated for 96 hrs by MTT assay; assay type: functional, cell-based; conditions: SF-295, 96 h
SF-268 [5] = test: Cytotoxicity against human SF-268 cells assessed as reduction in cell viability incubated for 72 hrs by SRB assay; assay type: functional, cell-based; conditions: SF-268, 72 h
[6] = Cytotoxicity against human CHG-5 cells assessed as reduction in cell viability incubated for 48 hrs by MTT assay; assay type: functional, cell-based; conditions: CHG-5, 48 h
[7] = Cytotoxicity against human SHG-44 cells assessed as reduction in cell viability incubated for 48 hrs by MTT assay; assay type: functional, cell-based; conditions: SHG-44, 48 h
CCF-STTG1 [8] = test: Cytotoxicity against human CCF-STTG1 cells assessed as reduction in cell viability incubated for 48 hrs by MTT assay; assay type: functional, cell-based; conditions: CCF-STTG1, 48 h
U-251 [9] = test: Cytotoxicity against human U-251MG cells assessed as reduction in cell viability incubated for 48 hrs by MTT assay; assay type: functional, cell-based; conditions: U-251, 48 h
[10] = Cytotoxicity against human U87MG.deltaEGFR cells by resazurin dye based assay; assay type: functional, cell-based
U-87 MG [11] = test: Cytotoxicity against human U-87 MG cells by resazurin dye based assay; assay type: functional, cell-based, U-87MG ATCC
[12] = Cytotoxicity against human CHG-5 cells assessed as reduction in cell viability incubated for 24 hrs by MTT assay; assay type: functional, cell-based; conditions: CHG-5, 24 h
[13] = Cytotoxicity against human SHG-44 cells assessed as reduction in cell viability incubated for 24 hrs by MTT assay; assay type: functional, cell-based; conditions: SHG-44, 24 h
CCF-STTG1 [14] = test: Cytotoxicity against human CCF-STTG1 cells assessed as reduction in cell viability incubated for 24 hrs by MTT assay; assay type: functional, cell-based; conditions: CCF-STTG1, 24 h
U-251 [15] = test: Cytotoxicity against human U-251MG cells assessed as reduction in cell viability incubated for 24 hrs by MTT assay; assay type: functional, cell-based; conditions: U-251, 24 h
SH-SY5Y [16] = test: Cytotoxicity against human SH-SY5Y cells; assay type: functional, cell-based
CCF-STTG1 [17] = test: Cytotoxicity against human CCF-STTG1 cells assessed as reduction in cell growth incubated for 24 hrs by MTT assay; assay type: functional, cell-based; conditions: CCF-STTG1, 24 h
[18] = Cytotoxicity against human GSC-3 cells assessed as reduction in cell viability incubated for 72 hrs by MTS assay; assay type: functional, cell-based; conditions: GSC-3, 72 h
SH-SY5Y [19] = test: Cytotoxicity against human SH-SY5Y cells assessed as reduction in cell growth incubated for 48 hrs by MTT assay; assay type: functional, cell-based
[20] = Cytotoxicity against human U-343MG cells assessed as reduction in cell growth incubated for 48 hrs by MTT assay; assay type: functional, cell-based
U-251 [21] = test: Cytotoxicity against human U-251MG cells assessed as reduction in cell growth incubated for 48 hrs by MTT assay; assay type: functional, cell-based; conditions: U-251, 48 h
[22] = Cytotoxicity against human SHG-44 cells assessed as reduction in cell growth incubated for 48 hrs by MTT assay; assay type: functional, cell-based; conditions: SHG-44, 48 h
[23] = Cytotoxicity against human CHG-5 cells assessed as reduction in cell growth incubated for 48 hrs by MTT assay; assay type: functional, cell-based; conditions: CHG-5, 48 h
[24] = Cytotoxicity against human GL15 cells assessed as reduction in cell growth incubated for 48 hrs by MTT assay; assay type: functional, cell-based; conditions: GL15, 48 h

In the case of `O=C1c2c(O)ccnc2-c2nccc3c2c1nc1ccccc13`, the MTD at 672 h [1] was > 160 mg/kg, the pIC50 (SW1088) was 5.22 and the pIC50 [2] was 5.22.

Work on `O=C1c2cccnc2-c2nccc3c2c1nc1cc(Br)ccc13` yielded an MTD at 672 h [1] of 20 mg/kg, a pIC50 (SW1088) of 6.40 and a pIC50 [2] of 6.22.

In the case of `COC(=O)C1=CO[C@@H](C)[C@@H]2CN3CC[C@]4(C(=O)Nc5ccccc54)[C@@H]3C[C@H]12`, the pIC50 (GAMG) was 4.70.

In the case of `CC1=NCCc2c1[nH]c1ccccc21`, the pIC50 (H4) was 4.47 and the inhibition at 100 µM (U-87 MG [3]) was 30%.

`C[C@@H]1CC[C@H]2C(C)(C)[C@H](O)CC[C@]2(C)[C@@]12Cc1c(O)cc3c(c1O2)C(=O)NC3=O` showed a pIC50 (SF-268 [4]) of 4.36.

Molecule `C[C@@H]1CC[C@H]2C(C)(C)[C@H](O)CC[C@]2(C)[C@@]12Cc1c(O)cc3c(c1O2)CNC3=O` has a pIC50 (SF-268 [4]) of 4.17.

Molecule `C[C@@H]1CC[C@H]2C(C)(C)[C@H](O)CC[C@]2(C)[C@@]12Cc1c(O)cc3c(c1O2)C(=O)NC3` has a pIC50 (SF-268 [4]) of 4.95.

Molecule `COc1cc2c(cc1OC)[C@H](O)[C@@H]1c3c(cc4c(c3-2)OCO4)CCN1C` has an IC50 (SF-295) of 1.41 mg/L (≈ 3.97 µM).

Work on `C/C=C(\C)[C@H](O)[C@H](C)/C=C(C)/C=C(\C)C/C(C)=C/Cc1nc(OC)c(OC)c(O)c1C` yielded a pIC50 (SF-268 [5]) of 4.52.

With `COC(=O)N1CCc2cc(O)c(OC)c3c4c(cc1c23)C(=O)C=C(OC)C4=O` the pIC50 [6] was 4.97, the pIC50 [7] was 4.97 and the pIC50 (CCF-STTG1 [8]) was 5.04. For the same molecule, the pIC50 (U-251 [9]) was 4.95.

In the case of `Oc1cc2c3c(c1O)c1cc4c(cc1c[n+]3CC2)OCO4`, the pIC50 [6] was 4.99, the pIC50 [7] was 5.03 and the pIC50 (CCF-STTG1 [8]) was 4.99. For the same molecule, the pIC50 (U-251 [9]) was 4.93.

Molecule `COc1cc(OC)c2c(=O)c3ccccc3n(C)c2c1` has a pIC50 [10] of 5.05 and a pIC50 (U-87 MG [11]) of 4.76.

`CC(=O)O[C@@H]1C2C3C[C@H]4C5=Nc6ccccc6[C@]51C[C@@H]2[N+]4([O-])[C@@H](C)[C@@H]3C=O` (some centres not stated) gave a pIC50 [12] of 4.89, a pIC50 [13] of 4.93 and a pIC50 (CCF-STTG1 [14]) of 4.91. The pIC50 (U-251 [15]) was 4.91.

In the case of `Cc1cc2[nH]c(=O)c(=O)n(CC(O)C(O)C(O)CO)c2cc1C` (configuration not stated), the pIC50 (SH-SY5Y [16]) was 4.15.

`C/C=C1\C2C[C@H]3C4=Nc5ccccc5[C@]45C[C@@H](C2[C@H]5OC(C)=O)[N+]3([O-])[C@H]1C` (some centres not stated) showed a pIC50 [12] of 4.80, a pIC50 [13] of 4.76 and a pIC50 (CCF-STTG1 [14]) of 4.78. It also gave a pIC50 (U-251 [15]) of 4.83.

`COc1cc2c(cc1O)C(=O)O[C@H]1[C@@H]2[C@H]2C(=C[C@@H]1O)CC[N+]2(C)[O-]` (some centres not stated) gave a pIC50 (CCF-STTG1 [17]) of 4.08.

In the case of `COc1cc2c(c(Oc3ccc(C=O)cc3)c1OC)C[C@H]1c3c(c(OC)c(OC)c(OC)c3-2)CCN1C`, the IC50 [18] was 14.5 mg/L (≈ 28.7 µM).

With `COc1c2c(cc3[nH]c4ccccc4c(=O)c13)OCO2` the pIC50 [10] was 5.24 and the pIC50 (U-87 MG [11]) was 4.05.

In the case of `COc1cc2c(c(Oc3ccc(C=O)cc3)c1OC)-c1c(OC)c(OC)c(OC)c3ccnc(c13)C2=O`, the IC50 [18] was 16.3 mg/L (≈ 32.5 µM).

Work on `COc1cc2c(cc1O)C(=O)O[C@@H]1CC=C3CC[N+](C)([O-])[C@H]3[C@H]21` (some centres not stated) yielded a pIC50 (CCF-STTG1 [17]) of 4.03.

`O[C@H]1[C@H]2c3cc4c(cc3C=[N+]3CCC(=C[C@@H]1O)[C@H]23)OCO4` showed a pIC50 [6] of 4.99, a pIC50 [7] of 5.03 and a pIC50 (CCF-STTG1 [8]) of 4.99. The pIC50 (U-251 [9]) was 4.93.

`CC(=O)O[C@H]1c2cc3c(cc2[C@]24C=C[C@H](O)C[C@H]2N1C[C@H]4O)OCO3` gave a pIC50 [6] of 4.53, a pIC50 [7] of 4.55 and a pIC50 (CCF-STTG1 [8]) of 4.53. The pIC50 (U-251 [9]) was 4.80.

With `COc1cc2c(c(Oc3ccc(C=O)cc3)c1OC)C[C@H]1c3c(cc(OC)c(OC)c3-2)CCN1C` the IC50 [18] was 19.2 mg/L (≈ 40.5 µM).

For `N#Cc1cnc2ccccc2c1O`, the pIC50 (SH-SY5Y [16]) was 4.18.

For `CC(C)=CC[C@]12C/C=C(/C)Oc3cccc(CO)c3/C(N)=C(/C(=O)C=C1C)C2=O`, the pIC50 (SF-268 [4]) was 4.75.

With `CO[C@@H]1C=C[C@@]23c4cc5c(cc4CN(CCc4ccc(O)cc4)[C@@H]2CN(C)[C@H]3C1)OCO5` the pIC50 (SH-SY5Y [19]) was 4.27, the pIC50 [20] was 4.36 and the pIC50 (U-251 [21]) was 4.33. The pIC50 [22] was 4.36, the pIC50 [23] was 4.38 and the pIC50 [24] was 4.40.

For `CC/C=C(\C)[C@H](O)[C@H](C)/C=C(C)/C=C(\C)C/C(C)=C/Cc1nc(OC)c(OC)c(O)c1C`, the pIC50 (SF-268 [5]) was 4.34.
